The values that follow come from patent US20050020550A1, “Selective testicular 11beta-HSD inhibitors and methods of use thereof” (priority 2003, published 2005).

The subject of one data set is rat aortic rings. Briefly: Contractile response of rat aortic rings to phenylephrine. The conditions noted are these: for contractile response to phenylephrine: rings incubated 24 hours with corticosterone (10 nmol/L) and antisense oligomers (3 μmol/L). Here is the method: Male Sprague-Dawley (150-200 g) rats were anesthetized with pentobarbital (50 mg/kg IP), and a median sternotomy was performed followed by the rapid removal of the thoracic aorta. The adventitia was removed, but the endothelium was left intact. The aorta was cut into 2-3 mm rings and individual rings were placed into a single well of a twenty four well culture plate and incubated at 37° C. under 95% O2-5% CO2. Each well contained 1 mL of DMEM/F12 containing 1% fetal bovine serum, streptomycin (100 μg/ml), penicillin (100 units/ml) and amphotericin (0.25 μg/ml). Aortic rings were incubated for 24 hours prior to contractility measurements with the following combinations of steroids, and antisense/nonsense oligonucleotides (3 μmol/L): • Corticosterone (10 nmol/L)+11β-HSD2 antisense or 11β-HSD2 nonsense oligomer • Corticosterone (10 nmol/L)+11β-HSD1 antisense or 11β-HSD1 nonsense oligomer • In 11-dehydrocorticosterone experiments with vehicle alone • 11-dehydrocorticosterone (100 nmol/L)+11β-HSD1 Antisense or 11β-HSD1 nonsense oligomer
Antisense phosphorothioate oligonucleotides, targeted to block either 11β-HSD2 or 11β-HSD1 gene expression, were obtained from Research Genetics, Huntsville Ala. Antisense oligomers complementary to 20 bp sequences spanning the ribosome binding/translation start site were used. Oligomer sequences were: 5′-CATAACTGCCGTCCAACAGC-3′ (SEQ ID No.: 2) for 11β-HSD1 Antisense and 5′-AGCCCAGCGCTCCATGACTT-3′ (SEQ ID No. 3) for 11β-HSD2 antisense. In control experiments the corresponding sense sequence was used as the nonsense oligomer. Antisense and nonsense oligomers were added directly to each well at 20 μg/10:1 sterile H2O per well for a final concentration of 3 μmol/L.
For contraction measurements, aortic rings were suspended by tungsten wires with 1 g of tension and placed in a vessel bath containing serum free DMEM/F 12 media at 37° C. aerated with 95% O2-5% CO2, at pH 7.4. Vessels were equilibrated for 20 minutes and then tested with phenylephrine (1 nmol/L−10 μmol/L). Although phenylephrine is structurally not a catecholamine, it is considered to be a functional catecholamine as it activates […]. Due to its favorable stability characteristics, it is widely used as a catecholamine substitute in experiments of this nature. The intensity of contraction was assessed by use of a Narishige micromanipulator and model FT03 force transducer (Grass Instrument Co. West Warwick, R.I.). Measurements were recorded on computer using the Labview 4.1 Virtual Instrument System (National Instruments, Austin, Tex.).

The next data set has as its system 11β-HSD enzyme activity. In words: Conversion of 3H-corticosterone to 11-dehydrocorticosterone by aortic rings. Details: species or system rat. The following applies: 24 hrs, 3H-corticosterone (10 nM) plus antisense (3 μM), compared to nonsense oligomers. Here is the method: The effects of 11β-HSD1 and 11β-HSD2 antisense on the inter-conversion of ^3H-corticosterone and ^3H-11-dehydro-corticosterone by aortic rings was also determined. Rings (2-3 mm) obtained in a similar manner as those in the contraction studies, were incubated in 1 ml DMEM/F12 media containing 1% FBS at 37° C. under 95% O2-5% CO2 in 24-well culture plates. […] The amount of ^3H-11-dehydro-corticqsterone in the incubation medium after 24 hrs was then measured. The effects of 11β-HSD1 antisense/nonsense were measured in quadruplicate (n=6 aortic rings per well) and the effects of 11β-HSD2 antisense/nonsense in duplicate (n=8 aortic rings per well), • (ii) ^3H-11-dehydro-corticosterone (10 nmol/L)±11β-HSD1 antisense (3 μmol/L); this experiment was performed in duplicate (n=10 aortic rings per well). Control groups were incubated with the appropriate nonsense oligomer. ^3H-corticosterone in the incubation medium after 24 hrs was then measured. In this experiment, aortic rings were also analyzed for ^3H-corticosterone content. […]
(§1) Incubation media was collected, ran through a Sep-Pak and eluted with 3 mls of methanol, the eluate was then dried under nitrogen and reconstituted in 500:1 methanol. […] Steroids were observed by monitoring radioactivity on-line with a Packard Radiomatic Flo-One/Beta Series A-500 counter connected to a Dell Optiflex 425 S/L computer. […]

In the next data set the target is T1, 11β-HSD1 Reductase (Rattus norvegicus, UniProt P16232).
T1 construct: an enzyme present in testicular Leydig cells; endogenous in cells; host or cells: freshly prepared rat Leydig cells
T1 sequence (P16232 whole entry): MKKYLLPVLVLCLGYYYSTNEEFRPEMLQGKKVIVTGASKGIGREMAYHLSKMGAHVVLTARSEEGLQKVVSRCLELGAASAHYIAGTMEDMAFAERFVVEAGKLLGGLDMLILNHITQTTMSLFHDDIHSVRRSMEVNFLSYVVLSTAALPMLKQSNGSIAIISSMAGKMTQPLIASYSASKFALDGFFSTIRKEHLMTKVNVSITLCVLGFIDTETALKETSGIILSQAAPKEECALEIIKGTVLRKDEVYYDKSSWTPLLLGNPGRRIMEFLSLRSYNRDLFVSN
Briefly: Inhibition of 11β-HSD1 reductase (Table 1). The data set is classed as cell-based.

Another data set addresses T2, 11β-HSD1 Dehydrogenase (Rattus norvegicus, UniProt P16232).
T2 construct: an enzyme present in testicular Leydig cells; endogenous in cells; host or cells: freshly prepared rat Leydig cells
Briefly: Inhibition of 11β-HSD1 dehydrogenase (Table 1). The data set is classed as cell-based.

A further data set concerns the target T3, 11β-HSD2 Dehydrogenase (Homo sapiens, UniProt P80365).
T3 sequence (P80365 1-405): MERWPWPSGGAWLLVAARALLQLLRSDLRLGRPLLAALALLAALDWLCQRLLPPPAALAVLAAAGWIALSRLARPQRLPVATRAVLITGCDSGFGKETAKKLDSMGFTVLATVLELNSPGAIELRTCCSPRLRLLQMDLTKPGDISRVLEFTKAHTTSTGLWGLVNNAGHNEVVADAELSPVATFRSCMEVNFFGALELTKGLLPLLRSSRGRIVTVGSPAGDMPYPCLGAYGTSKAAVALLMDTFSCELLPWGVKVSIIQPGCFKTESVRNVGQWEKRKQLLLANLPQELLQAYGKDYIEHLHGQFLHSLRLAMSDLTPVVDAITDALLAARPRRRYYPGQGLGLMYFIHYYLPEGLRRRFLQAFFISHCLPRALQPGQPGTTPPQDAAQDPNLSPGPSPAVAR
In words: Inhibition of 11β-HSD2 dehydrogenase (Table 1). Format: biochemical.

Data set [1] has as its system 11β-HSD1-reductase activity. Briefly: Conversion of 3H-11-dehydrocorticosterone back to corticosterone by aortic rings. Also on record: species or system rat. Here is the method:
The effects of 11β-HSD1 and 11β-HSD2 antisense on the inter-conversion of ^3H-corticosterone and ^3H-11-dehydro-corticosterone by aortic rings was also determined. Rings (2-3 mm) obtained in a similar manner as those in the contraction studies, were incubated in 1 ml DMEM/F12 media containing 1% FBS at 37° C. under 95% O2-5% CO2 in 24-well culture plates. Rings were incubated for 24 hours with: • (i) ^3H-corticosterone ([…])±11β-HSD2 or 11β-HSD1 antisense (3 μmol/L); control groups received nonsense oligomers. The amount of ^3H-11-dehydro-corticqsterone in the incubation medium after 24 hrs was then measured. The effects of 11β-HSD1 antisense/nonsense were measured in quadruplicate (n=6 aortic rings per well) and the effects of 11β-HSD2 antisense/nonsense in duplicate (n=8 aortic rings per well), • (ii) ^3H-11-dehydro-corticosterone (10 nmol/L)±11β-HSD1 antisense (3 μmol/L); this experiment was performed in duplicate (n=10 aortic rings per well). Control groups were incubated with the appropriate nonsense oligomer. ^3H-corticosterone in the incubation medium after 24 hrs was then measured. In this experiment, aortic rings were also analyzed for ^3H-corticosterone content. Rings from duplicate incubations (total n=20) were blotted dry, pooled and homogenized in 50% methanol using a Polytron. The homogenates were then centrifuged, extracted as below using Sep-Paks and injected onto a HPLC system for analysis.
as §1
Corticosterone and phenylephrine were obtained from Sigma (St Louis, Mo.), 11-dehydrocorticosterone from Research Plus (Bayonne, N.J.) and ^3H-steroids from New England Nuclear (Boston, Mass.). Where appropriate, data were expressed as mean±SE and analyzed using ANOVA and the Student's t test with Bonferroni modification. […]

Setting [2] is: with the 11β-HSD1-reductase inhibitor steroid.

T2 sequence (P16232 whole entry): as the sequence (P16232 whole entry) above

Consider “11β-HSD2 antisense: Antisense phosphorothioate oligonucleotide blocking 11β-HSD2 gene expression, 5′-AGCCCAGCGCTCCATGACTT-3′ (antisense AGCCCAGCGCTCCATGACTT; all phosphorothioate, sugars by position and methylation of C not given here; listed as Homo sapiens)”, for which the “contractile response to phenylephrine” value with rat aortic rings (compared to nonsense oligomers) was “statistically significant increase”. Moreover, the “reduction in the conversion of corticosterone to 11-dehydrocorticosterone” value in the data set with 11β-HSD enzyme activity is given as 24%.
As for `CC(=O)[C@H]1CC[C@@H]2[C@@H]3CCC4=CC(=O)CC[C@]4(C)[C@@H]3C(=O)C[C@]12C` [11-Keto-progesterone], the “11β-HSD1 Reductase (inhibition)” value at 11β-HSD1 Reductase was “Selective Inhibitor”. The “ability of 11-dehydro-corticosterone to amplify the contractile effects of phenylephrine” value with rat aortic rings (setting [2]) is “diminished”. On 11β-HSD1 Dehydrogenase, the “11β-HSD1 Dehydrogenase (inhibition)” value was “No Inhibition”. The “11β-HSD2 Dehydrogenase (inhibition)” value at 11β-HSD2 Dehydrogenase is reported as “Potent Inhibitor”. Moreover, in data set [1] (setting [2]), the “metabolism of 11-dehydro-corticosterone back to corticosterone” value is reported as “decreased”.
Regarding “11β-HSD1 antisense: Antisense phosphorothioate oligonucleotide blocking 11β-HSD1 gene expression, 5′-CATAACTGCCGTCCAACAGC-3′ (antisense CATAACTGCCGTCCAACAGC; all phosphorothioate, sugars by position and methylation of C not given here; listed as Homo sapiens)”, the “ability of 11-dehydro-corticosterone to amplify the contractile response to phenylephrine” value in the data set with rat aortic rings (rings incubated 24 hours with 11-dehydro-corticosterone (100 nmol/L) and antisense (3 μmol/L), compared to nonsense oligomers) is “attenuated”. Further, in the data set with rat aortic rings (compared to nonsense oligomers), the “contractile response to phenylephrine” value is listed as “significantly increased”. In addition, in the data set on 11β-HSD enzyme activity, the “reduction in the conversion of corticosterone to 11-dehydrocorticosterone” value amounted to 21%. Besides, the “production of 3H-corticosterone from 3H-11-dehydrocorticosterone” value in data set [1] (incubation medium, 24 hours, antisense compared to nonsense oligomers) is “markedly reduced”. In addition, the “production of 3H-corticosterone in aortic ring tissue” value in data set [1] (pooled aortic ring tissue (n=20), antisense compared to nonsense oligomers) is on record as “markedly lower”.
